According to patent US20170239351A1, “Therapeutic Combinations of a BTK Inhibitor, a PI3K Inhibitor, a JAK-2 Inhibitor, a PD-1 Inhibitor, and/or a PD-L1 Inhibitor” (Acerta Pharma B.V., priority 2014, published 2017):

How the values were obtained:
CD8^+ T cell function [1] = experiment: IFN-γ level measurements for CD8+ T cell function; format: cell-based; settings: relative to vehicle
primary CLL cells = experiment: Rituximab ADCC assay (51Cr release), NK cells against autologous tumor cells; format: cell-based, human; settings: 1 μM; primary CLL samples
human platelets = experiment: GPVI (convulxin-induced) platelet aggregation; format: cell-based
Procedure: GPVI platelet aggregation was measured for Formula (XVIII) and Formula (XX-A) (ibrutinib). Blood was obtained from untreated humans, and platelets were purified from […] by centrifugation. Cells were resuspended to a final concentration of 350,000/μL in buffer containing 145 mmol/L NaCl, 10 mmol/L HEPES, 0.5 mmol/L Na2HPO4, 5 mmol/L KCl, 2 mmol/L MgCl2, 1 mmol/L CaCl2, and 0.1% glucose, at pH 7.4. Stock solutions of Convulxin (CVX) GPVI were prepared on the day of experimentation and added to platelet suspensions 5 minutes (37° C., 1200 rpm) before the induction of aggregation. Aggregation was assessed with a Chronolog Lumi-Aggregometer (model 540 VS; Chronolog, Havertown, Pa.) and permitted to proceed for 6 minutes after the addition of agonist. The results are reported as maximum percent change in light transmittance from baseline with platelet buffer used as a reference.
In FIG. 129, the results of CVX-induced (250 ng/mL) human platelet aggregation results before and 15 minutes after administration of the BTK inhibitors to 6 healthy individuals are shown.

T helper 17 (Th17) cells = experiment: Effect on T helper 17 (Th17) cells; format: cell-based
CD8^+ T cell = experiment: CD8+ T cell viability; format: cell-based
[2] = Respiratory function study (GLP safety pharmacology); settings: doses through 300 mg/kg
KPC pancreatic cancer = KPC pancreatic cancer model; settings: in vivo
CD8^+ T cells = experiment: Cytotoxic T cell (CTL) assay; format: cell-based; settings: 500 nM
Procedure: Without being bound by any theory, CD8^+ T cells have two primary effector functions: (1) produce large amounts of IFN-γ (which activates macrophages), and (2) cytolytic activity. […] The targets were B lymphoblasts from lipopolysaccharide (LPS) treated cultures. The assay was performed by incubating different ratios of effectors:targets for 4 hours.

[3] = system: regulatory T cell (Treg) development; experiment: Regulatory T cell (Treg) development; format: cell-based
relapsed/refractory CLL [4] = experiment: Clinical study of Formula (XVIII) in relapsed/refractory CLL/SLL
[5] = system: expression of activation markers CD69 and CD86; experiment: In vivo potency: BCR stimulated with IgM, CD69 and CD86 expression by flow cytometry; settings: mice gavaged, 3 h post-dose
Procedure: Mice were gavaged at increasing drug concentration and sacrificed at one time point (3 h post-dose). BCR is stimulated with IgM and the expression of activation markers CD69 and CD86 are monitored by flow cytometry to determine EC50's.

NSCLC lung tumors = experiment: Genetic tumor model of NSCLC (KrasLA2); format: in vivo, mice; settings: 15 mg/kg
Text: The model is designed to have sporadic expression in single cells of G12D mutant Kras off its own promoter triggered by spontaneous intrachromosomal recombination. Johnson, et al. Nature 2001, 410, 1111-16. While the mutant Kras protein is expressed in a few cells in all tissues, tumor development is seen only in the lung at high penetrance.

CLL = experiment: Clinical study of Formula (XVIII) in CLL; format: in vivo
ID8 ovarian cancer = experiment: ID8 syngeneic orthotropic ovarian cancer model; format: in vivo, mice
BTK = BTK (Homo sapiens, UniProt Q06187); experiment: BTK target occupancy in relapsed/refractory CLL patients; format: in vivo; settings: at lower dosage versus ibrutinib
BTK, sequence (Q06187 whole entry): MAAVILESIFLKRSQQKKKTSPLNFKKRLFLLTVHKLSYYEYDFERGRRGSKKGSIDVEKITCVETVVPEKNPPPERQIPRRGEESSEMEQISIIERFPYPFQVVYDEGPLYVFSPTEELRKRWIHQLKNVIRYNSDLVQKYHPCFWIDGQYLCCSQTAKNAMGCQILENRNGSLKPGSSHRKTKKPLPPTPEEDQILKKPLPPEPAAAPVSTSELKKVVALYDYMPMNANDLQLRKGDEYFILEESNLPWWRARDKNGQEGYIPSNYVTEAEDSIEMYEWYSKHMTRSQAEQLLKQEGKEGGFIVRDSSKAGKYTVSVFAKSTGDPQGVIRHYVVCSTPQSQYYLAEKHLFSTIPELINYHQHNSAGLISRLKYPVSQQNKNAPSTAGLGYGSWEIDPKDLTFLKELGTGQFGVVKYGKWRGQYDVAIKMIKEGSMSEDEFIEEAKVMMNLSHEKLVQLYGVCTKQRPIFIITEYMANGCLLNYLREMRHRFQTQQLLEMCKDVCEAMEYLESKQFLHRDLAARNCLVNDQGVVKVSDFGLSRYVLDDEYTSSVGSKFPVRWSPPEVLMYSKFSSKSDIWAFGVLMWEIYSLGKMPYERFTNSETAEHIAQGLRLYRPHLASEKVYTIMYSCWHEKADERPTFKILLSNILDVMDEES

Raji cells = experiment: Rituximab ADCC assay (51Cr release), healthy donor NK cells; format: cell-based, human; settings: 1 μM
[6] = Cardiovascular function study in awake telemeterized animals; settings: single doses through 30 mg/kg
[7] = In vitro metabolism in hepatocytes with 14C-labeled drug; format: in vitro ADME, mouse, rat, dog, rabbit, monkey, and human
CD8^+ T cell function [8] = experiment: Cytotoxicity assay for CD8+ T cell function; format: cell-based; settings: relative to vehicle
NK cells = experiment: Whole blood NK cell degranulation/ADCC assay with obinutuzumab-opsonised MEC-1 cells; format: cell-based, human; settings: CD56+/CD107a+ NK cells; n=3 experiments
[9] = Standard drug metabolism and pharmacokinetics (DMPK) assays; format: in vitro ADME
[10] = Functional observation battery (GLP safety pharmacology); settings: doses through 300 mg/kg
relapsed/refractory CLL [11] = settings: human, in vivo

Structure (SMILES): CC#CC(=O)N1CCC[C@H]1c1nc(-c2ccc(C(=O)Nc3ccccn3)cc2)c2c(N)nccn12 [Formula (XVIII), (S)-4-(8-amino-3-(1-(but-2-ynoyl)pyrrolidin-2-yl)imidazo[1,5-a]pyrazin-1-yl)-N-(pyridin-2-yl)benzamide]
- CD8+ T cell function as measured by IFN-γ level (CD8^+ T cell function [1]): no effect on CD8^+ T cell function
- effect on rituximab-mediated ADCC (primary CLL cells): not inhibited
- GPVI platelet aggregation (human platelets): does not
- effect on Th17 cells (T helper 17 (Th17) cells): no adverse effect on T helper 17 (Th17) cells
- effect on CD8+ T cell viability (CD8^+ T cell): no effect on CD8^+ T cell viability
- respiratory function [2]: no treatment-related adverse effects
- immunosuppressive MDSCs (Gr1+Ly6CHi) in tumor tissues (KPC pancreatic cancer): significantly reduced
- immunosuppressive TAMs (CD11b+Ly6ClowF4/80+Csf1r+) in tumor tissues (KPC pancreatic cancer): significantly reduced
- immunosuppressive Tregs (CD4+CD25+FoxP3+) in tumor tissues (KPC pancreatic cancer): significantly reduced
- CD8^+ T cell function as % cytotoxicity (CD8^+ T cells): no effect on CD8^+ T cell function
- effect on Treg development [3]: no effect on regulatory T cell (Treg) development
- PD, % (relapsed/refractory CLL [4]; 100 mg BID (N = 3)): (0) %
- PR, % (relapsed/refractory CLL [4]; 100 mg BID (N = 3)): (100) %
- PD, % (relapsed/refractory CLL [4]; 100 mg QD (N = 8)): (0) %
- PR, % (relapsed/refractory CLL [4]; 100 mg QD (N = 8)): (88) %
- PD, % (relapsed/refractory CLL [4]; 175 mg QD (N = 8)): (0) %
- PR + L, % (relapsed/refractory CLL [4]; 175 mg QD (N = 8)): (37) %
- PR, % (relapsed/refractory CLL [4]; 175 mg QD (N = 8)): (63) %
- PD, % (relapsed/refractory CLL [4]; 250 mg QD (N = 7)): (0) %
- PR + L, % (relapsed/refractory CLL [4]; 250 mg QD (N = 7)): (29) %
- PR, % (relapsed/refractory CLL [4]; 250 mg QD (N = 7)): (71) %
- PD, % (relapsed/refractory CLL [4]; 400 mg QD (N = 5)): (0) %
- PR + L, % (relapsed/refractory CLL [4]; 400 mg QD (N = 5)): (40) %
- PR, % (relapsed/refractory CLL [4]; 400 mg QD (N = 5)): (40) %
- PD, % (relapsed/refractory CLL [4]; All Cohorts (N = 31)): (0) %
- PR + L, % (relapsed/refractory CLL [4]; All Cohorts (N = 31)): (23) %
- PR, % (relapsed/refractory CLL [4]; All Cohorts (N = 31)): (71) %
- time of treatment to reach the same median % change in SPD (relapsed/refractory CLL [4]; CLL patients): 7 months
- Headache, treatment-related adverse event (relapsed/refractory CLL [4]; Grade 1/2, All (N = 44)): 7 (16) n (%)
- Diarrhea, treatment-related adverse event (relapsed/refractory CLL [4]; Grade 1, All (N = 44)): 4 (9) n (%)
- Increased tendency to bruise, treatment-related adverse event (relapsed/refractory CLL [4]; Grade 1, All (N = 44)): 6 (14) n (%)
- Petechiae, treatment-related adverse event (relapsed/refractory CLL [4]; Grade 1, All (N = 44)): 3 (7) n (%)
- dose-limiting toxicities (DLTs) (relapsed/refractory CLL [4]; human, in vivo): No DLTs were observed
- grade of adverse events (relapsed/refractory CLL [4]; human, in vivo): only grade 1 AEs were observed
- lymphocytosis (relapsed/refractory CLL [4]; human, in vivo): A lack of lymphocytosis was observed
- plasma CXCL12 and CCL2 levels (relapsed/refractory CLL [4]; human, in vivo): significant decrease
- treatment-related serious adverse events (SAEs) (relapsed/refractory CLL [4]; human, in vivo): No treatment-related serious adverse events (SAEs) were observed
- progression in patients with the 17p deletion (relapsed/refractory CLL [4]; to date): no 17p patients have progressed
- inhibition of expression of activation markers CD69 and CD86, compared with ibrutinib [5]: more potent at inhibiting expression of activation makers than ibrutinib
- number of tumors (NSCLC lung tumors): fewer overall tumors
- tumor volumes versus vehicle (NSCLC lung tumors): significant decrease in tumor volumes
- apoptosis (CLL; CLL patients treated): increased apoptosis
- sum of the product of greatest diameters (SPD) (CLL; CLL patients, compared with ibrutinib): decreases more rapidly
- absolute lymphocyte count (ALC) (CLL; CLL patients, relative to ibrutinib data of Byrd, et al.): much smaller relative increase and much faster decrease
- CCL2 levels (CLL; patients treated): decrease in CCL2 levels
- CXCL12 levels (CLL; patients treated): decrease in CXCL12 levels
- CD8+ T cells (ID8 ovarian cancer; mouse, in vivo): increase in CD8^+ T cells
- immunosuppressive tumor associated Tregs (ID8 ovarian cancer; mouse, in vivo): significant reduction in immunosuppressive tumor associated Tregs
- ID8 ovarian cancer growth (ID8 ovarian cancer; syngeneic murine model, versus vehicle): impairs ID8 ovarian cancer growth
- B regulatory cells (Bregs) (ID8 ovarian cancer; tumor-bearing mice): significant reduction in B regulatory cells (Bregs)
- total B cells (ID8 ovarian cancer; tumor-bearing mice): significant reduction in total B cells
- immunosuppressive tumor associated lymphocytes (ID8 ovarian cancer; tumor-bearing mice, versus vehicle): significant reduction in immunosuppressive tumor associated lymphocytes
- BTK target occupancy (BTK): improved BTK target occupancy
- effect on rituximab-mediated ADCC (Raji cells): not inhibited
- body temperature, cardiovascular, or ECG (including QT interval) parameters [6]: no meaningful changes
- metabolites found [7]: two mono-oxidized metabolites and a glutathione conjugate
- unique human metabolite [7]: No unique human metabolite was identified
- CD8+ T cell function as measured by % cytotoxicity (CD8^+ T cell function [8]): no effect on CD8^+ T cell function
- reduction of obinutuzumab-stimulated NK cell degranulation (NK cells): minimal effect
- solubility, plasma protein binding and oral bioavailability versus ibrutinib [9]: greater solubility, less plasma protein binding, and better oral bioavailability than ibrutinib
- neurobehavioral effects or body temperature [10]: no adverse effects
- maximum tolerated dose (MTD) (relapsed/refractory CLL [11]): not reached
